The source made the active and inactive calls. Rule as the data show it: actives have a measured AC50 and inactives only a lower limit.
Biological target: T1, Replicative DNA helicase DnaB (Mycobacterium tuberculosis, UniProt P9WMR3)
T1 sequence (P9WMR3 whole entry): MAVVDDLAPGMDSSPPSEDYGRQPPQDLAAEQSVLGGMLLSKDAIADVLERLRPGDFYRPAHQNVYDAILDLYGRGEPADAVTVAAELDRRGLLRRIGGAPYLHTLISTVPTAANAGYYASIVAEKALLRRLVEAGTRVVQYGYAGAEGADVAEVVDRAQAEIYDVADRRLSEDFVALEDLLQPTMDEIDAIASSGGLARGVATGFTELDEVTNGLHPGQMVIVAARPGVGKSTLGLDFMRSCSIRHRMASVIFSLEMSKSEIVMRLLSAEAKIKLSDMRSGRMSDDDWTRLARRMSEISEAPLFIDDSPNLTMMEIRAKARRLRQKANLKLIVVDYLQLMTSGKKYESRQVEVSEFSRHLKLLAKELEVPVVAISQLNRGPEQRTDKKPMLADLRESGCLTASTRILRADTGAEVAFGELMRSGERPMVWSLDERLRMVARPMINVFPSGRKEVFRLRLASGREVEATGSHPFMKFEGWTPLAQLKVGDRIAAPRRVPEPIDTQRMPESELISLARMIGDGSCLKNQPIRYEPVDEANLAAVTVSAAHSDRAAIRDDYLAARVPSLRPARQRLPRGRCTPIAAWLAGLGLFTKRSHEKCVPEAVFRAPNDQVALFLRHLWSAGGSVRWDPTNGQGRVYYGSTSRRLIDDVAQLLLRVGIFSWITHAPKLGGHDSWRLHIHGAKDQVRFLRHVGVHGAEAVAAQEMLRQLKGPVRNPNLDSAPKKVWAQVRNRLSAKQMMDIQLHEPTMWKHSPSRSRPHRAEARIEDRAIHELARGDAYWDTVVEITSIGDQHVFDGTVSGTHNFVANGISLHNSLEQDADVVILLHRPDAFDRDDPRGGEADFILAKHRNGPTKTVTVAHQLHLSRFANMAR
Test: DnaB intein splicing inhibitors, dose response, biochemical, cell-free fluorescence (AID 449749)
Type: functional

With `O=C(Cc1ccccc1Cl)NC1(O)C(=O)c2ccccc2C1=O` the AC50 was 7.96 µM (active).

Source: ChEMBL document CHEMBL1201862, “PubChem BioAssay data set” (2004)
